The text below walks through data of ChEMBL document CHEMBL5634141 (Eur J Med Chem, 2023).

The test system of data set [1] is MIA PaCa-2. In words: Antiproliferative activity against human MIA PaCa-2 cells expressing KRAS G12C mutant assessed as relative cell viability at 100 nM incubated for 72 hrs by CCK-8 assay. Type of data set: functional. Particulars: read-out: Activity.
The test system of data set [2] is NCI-H358. Put plainly: Antiproliferative activity against human NCI-H358 cells expressing KRAS G12C mutant assessed as relative cell viability at 100 nM incubated for 72 hrs by CCK-8 assay. Type of data set: functional. Particulars: read-out: Activity.
Data set [3] relates to SW837. Put plainly: Antiproliferative activity against human SW837 cells expressing KRAS G12C mutant assessed as relative cell viability at 100 nM incubated for 72 hrs by CCK-8 assay. Type of data set: functional. Particulars: read-out: Activity.
Data set [4] concerns Calu-1. In words: Antiproliferative activity against human Calu-1 cells expressing KRAS G12C mutant assessed as relative cell viability at 100 nM incubated for 72 hrs by CCK-8 assay. Type of data set: functional. Particulars: read-out: Activity.
The subject of data set [5] is NCI-H23. In words: Antiproliferative activity against human NCI-H23 cells expressing KRAS G12C mutant assessed as relative cell viability at 100 nM incubated for 72 hrs by CCK-8 assay. In kind it is functional. The settings on record: read-out: Activity.
Data set [6] concerns MIA PaCa-2. Put plainly: Antiproliferative activity against human MIA PaCa-2 cells expressing KRAS G12C mutant assessed as inhibition of cell growth incubated for 72 hrs by CCK-8 assay. Type of data set: functional, cell-based. The settings on record: MIA PaCa-2, 72 h.
The nature of data set [7]: Cytotoxicity against HEK293T cells assessed as inhibition of cell growth incubated for 72 hrs by CCK-8 assay. In kind it is toxicity, cell-based, HEK-293T. The settings on record: human.
Data set [8] has as its system NCI-H358. Put plainly: Antiproliferative activity against human NCI-H358 cells expressing KRAS G12C mutant assessed as inhibition of cell growth incubated for 72 hrs by CCK-8 assay. Type of data set: functional, cell-based. Particulars: NCI-H358, 72 h.
In a further data set the test system is HepG2. Put plainly: Antiproliferative activity against human HepG2 cells expressing KRAS assessed as inhibition of cell growth incubated for 72 hrs by CCK-8 assay. The settings on record: HepG2, 72 h. Type of data set: functional, cell-based.
In a further data set the test system is ASPC1. In words: Antiproliferative activity against human ASPC1 cells expressing KRAS G12D mutant assessed as inhibition of cell growth incubated for 72 hrs by CCK-8 assay. In kind it is functional, cell-based. The settings on record: ASPC1, 72 h.
The subject of data set [9] is MIA PaCa-2. Put plainly: Antiproliferative activity against human MIA PaCa-2 cells expressing KRAS G12C mutant assessed as relative cell viability at 50 nM incubated for 72 hrs by CCK-8 assay. Type of data set: functional. The settings on record: read-out: Activity.
The subject of data set [10] is SW837. In words: Antiproliferative activity against human SW837 cells expressing KRAS G12C mutant assessed as relative cell viability at 50 nM incubated for 72 hrs by CCK-8 assay. Type of data set: functional. Particulars: read-out: Activity.
The test system of data set [11] is Calu-1. Put plainly: Antiproliferative activity against human Calu-1 cells expressing KRAS G12C mutant assessed as relative cell viability at 50 nM incubated for 72 hrs by CCK-8 assay. The settings on record: read-out: Activity. In kind it is functional.
The test system of data set [12] is NCI-H23. Put plainly: Antiproliferative activity against human NCI-H23 cells expressing KRAS G12C mutant assessed as relative cell viability at 50 nM incubated for 72 hrs by CCK-8 assay. Type of data set: functional. Particulars: read-out: Activity.
Data set [13] concerns NCI-H358. In words: Antiproliferative activity against human NCI-H358 cells expressing KRAS G12C mutant assessed as relative cell viability at 50 nM incubated for 72 hrs by CCK-8 assay. Type of data set: functional. The settings on record: read-out: Activity.
Data set [14] relates to von Hippel-Lindau disease tumor suppressor/GTPase KRas (Homo sapiens), P01116+P40337 [G12C]. Put plainly: PROTAC activity at VHL/KRAS G12C mutant in human MIA PaCa-2 cells assessed as induction of protein degradation at 10 to 1000 nM incubated for 48 hrs by Western blotting analysis. In kind it is cell-based. Particulars: dose 10-1000 nM.
For data set [15] the test system is unchanged. In words: PROTAC activity at VHL/KRAS G12C mutant in human NCI-H358 cells assessed as induction of protein degradation at 10 to 1000 nM incubated for 48 hrs by Western blotting analysis. In kind it is cell-based. Particulars: dose 10-1000 nM.

The structures appear in SMILES notation. Calls of active or inactive are those of the source. The calls are words filed in the database; no cut-off is given here.

As to `Cc1ccc(NC(=O)c2ccnc(C(F)(F)F)c2)cc1-c1cc(OCCO)nc(N2CCOCC2)c1` [NAPORAFENIB], the viability at 0.1 µM with MIA PaCa-2 [1] came to 0.79%; with NCI-H358 [2], 0.81%; with SW837 [3] it was 0.85%; in the data set on Calu-1 [4], 0.9%; with NCI-H23 [5] it was 0.82%.
`C=CC(=O)N1CCN(c2nc(=O)n(-c3c(C)ccnc3C(C)C)c3nc(-c4c(F)cccc4OCc4cn(CCC(=O)N[C@H](C(=O)N5C[C@H](O)C[C@H]5C(=O)NCc5ccc(-c6scnc6C)cc5)C(C)(C)C)nn4)c(F)cc23)[C@@H](C)C1`: the IC50 in the data set with MIA PaCa-2 [6] was 200 nM; with NCI-H358 [8], 222 nM; in the data set with HepG2, more than 10000 nM; in the data set with ASPC1, more than 10000 nM. Besides, in data set [7], the concentration for half-maximal inhibition (IC50) at 72 h is more than 10000 nM.
Turning to `NC1(c2ccc(-c3nc4ccn5c(=O)[nH]nc5c4cc3-c3ccccc3)cc2)CCC1` [MK-2206], the viability at 0.1 µM in the data set on MIA PaCa-2 [1] stood at 0.92%; in the data set on NCI-H358 [2] it was 0.88%; in the data set on SW837 [3] it was 0.84%; in the data set with Calu-1 [4] it was 0.82%; with NCI-H23 [5] it was 0.85%.
As for `C=CC(=O)N1CCN(c2nc(=O)n(-c3c(C)ccnc3C(C)C)c3nc(-c4c(F)cccc4OCc4cn(CCCCCC(=O)N[C@H](C(=O)N5C[C@H](O)C[C@H]5C(=O)NCc5ccc(-c6scnc6C)cc5)C(C)(C)C)nn4)c(F)cc23)[C@@H](C)C1`, the IC50 was 481 nM in the data set with MIA PaCa-2 [6], 289 nM in the data set on NCI-H358 [8], more than 10000 nM in the data set on HepG2 and more than 10000 nM in the data set with ASPC1. For the same molecule, in data set [7], the IC50 at 72 h was more than 10000 nM.
On to `Cn1cnc2c(F)c(Nc3ccc(Br)cc3Cl)c(C(=O)NOCCO)cc21` [SELUMETINIB], for which the viability at 0.05 µM with MIA PaCa-2 [9] turned out to be 0.71%; in the data set on SW837 [10], 0.73%; with Calu-1 [11], 0.82%; with NCI-H23 [12], 0.77%; in the data set with NCI-H358 [13], 0.86%.
`C=CC(=O)N1CCN(c2nc(=O)n(-c3c(C)ccnc3C(C)C)c3nc(-c4c(F)cccc4OCCOCC(=O)Nc4cccc5c4CN(C4CCC(=O)NC4=O)C5=O)c(F)cc23)[C@@H](C)C1` (some centres undefined): the half-maximal inhibitory concentration (IC50) in the data set with MIA PaCa-2 [6] is 434 nM; with NCI-H358 [8] it was 631 nM; in the data set with HepG2, more than 10000 nM; in the data set on ASPC1 it was more than 10000 nM. Further, in data set [7], the concentration for half-maximal inhibition (IC50) at 72 h is more than 10000 nM.
Regarding `C=CC(=O)N1CCN(c2nc(=O)n(-c3c(C)ccnc3C(C)C)c3nc(-c4c(F)cccc4OCC4CCN(CCCC(=O)N[C@H](C(=O)N5CC(O)C[C@H]5C(=O)NCc5ccc(-c6scnc6C)cc5)C(C)(C)C)CC4)c(F)cc23)[C@@H](C)C1` (some centres undefined), the half-inhibitory concentration (IC50) with MIA PaCa-2 [6] amounted to 278 nM; in the data set on NCI-H358 [8] it was 588 nM. Also, the result in data set [14] and in data set [15] was inactive.
Regarding `C=CC(=O)N1CCN(c2nc(=O)n(-c3c(C)ccnc3C(C)C)c3nc(-c4c(F)cccc4OCCOCCOCC(=O)Nc4cccc5c4CN(C4CCC(=O)NC4=O)C5=O)c(F)cc23)[C@@H](C)C1` (some centres undefined), the IC50 with MIA PaCa-2 [6] is 690 nM; in the data set on NCI-H358 [8], 765 nM; in the data set on HepG2, more than 10000 nM; in the data set on ASPC1 it was more than 10000 nM. In addition, in data set [7], the IC50 at 72 h is more than 10000 nM.
